# Tested on: GNS166 cells
# Assay: Label-free proteomics differential expression
# Type: cell-based, human
# Description: Proteomic studies were performed by the Proteomics Facility of the CIC bioGUNE by label-free relative quantification on nLC MS/MS. […] In both approaches, the top 20 enriched terms were plotted and the pathways were clustered using divisive hierarchical clustering based on pairwise Jaccard distances.
structure (smiles),measurement,setting,value
C#CCN(Cc1cc2cc(OCCCN3CCCCC3)ccc2n1S(=O)(=O)c1ccccc1)C(=O)CCCCCCC(=O)NO [DDI],LogFC THG1_HUMAN,protein Q9NWX6,-0.1726
same,Direction F120C_HUMAN,protein Q9NX05,Down
same,LogFC F120C_HUMAN,protein Q9NX05,-0.4931
same,Direction IMPA3_HUMAN,protein Q9NX62,Down
same,LogFC IMPA3_HUMAN,protein Q9NX62,-2.939
same,Direction NSMA3_HUMAN,protein Q9NXE4,Down
same,LogFC NSMA3_HUMAN,protein Q9NXE4,-1.089
same,Direction TRM1_HUMAN,protein Q9NXH9,Down
same,LogFC TRM1_HUMAN,protein Q9NXH9,-1.158
same,Direction GTSE1_HUMAN,protein Q9NYZ3,Down
same,LogFC GTSE1_HUMAN,protein Q9NYZ3,-2.523
same,Direction F120A_HUMAN,protein Q9NZB2,Down
same,LogFC F120A_HUMAN,protein Q9NZB2,-0.8566
same,Direction MYOF_HUMAN,protein Q9NZM1,Down
same,LogFC MYOF_HUMAN,protein Q9NZM1,-1.514
same,LogFC SPN90_HUMAN,protein Q9NZQ3 GN=NCKIPSD,0.408
same,LogFC H2AW_HUMAN,protein Q9P0M6 GN=MACROH2A2,-2.056
same,Direction RCC2_HUMAN,protein Q9P258,Down
same,LogFC RCC2_HUMAN,protein Q9P258,-0.788
same,Direction MO4L1_HUMAN,protein Q9UBU8,Down
same,LogFC MO4L1_HUMAN,protein Q9UBU8,-1.829
same,LogFC SE1L1_HUMAN,protein Q9UBV2 GN=SEL1L,1.64
same,Direction CSN7A_HUMAN,protein Q9UBW8,Down
same,LogFC CSN7A_HUMAN,protein Q9UBW8,-0.366
same,Direction QCR9_HUMAN,protein Q9UDW1,Down
same,LogFC QCR9_HUMAN,protein Q9UDW1,-1.3801
same,Direction ABCF2_HUMAN,protein Q9UG63,Down
same,LogFC ABCF2_HUMAN,protein Q9UG63,-0.9684
same,LogFC SEC63_HUMAN,protein Q9UGP8 GN=SEC63,-0.6574
same,Direction Z3H7B_HUMAN,protein Q9UGR2,Down
same,LogFC Z3H7B_HUMAN,protein Q9UGR2,-0.582
same,Direction ABC3B_HUMAN,protein Q9UH17,Down
same,LogFC ABC3B_HUMAN,protein Q9UH17,-2.711
same,LogFC PCYOX_HUMAN,protein Q9UHG3 GN=PCYOX1,1.78
same,Direction DDX20_HUMAN,protein Q9UHI6,Down
same,LogFC DDX20_HUMAN,protein Q9UHI6,-1.492
same,LogFC NB5R1_HUMAN,protein Q9UHQ9 GN=CYB5R1,0.825
same,LogFC VATH_HUMAN,protein Q9UI12 GN=ATP6V1H,0.8971
same,LogFC PRAF1_HUMAN,protein Q9UI14 GN=RABAC1,-1.449
same,LogFC DDX41_HUMAN,protein Q9UJV9 GN=DDX41,-0.9972
same,LogFC CDC23_HUMAN,protein Q9UJX2 GN=CDC23,-0.6966
same,Direction APC7_HUMAN,protein Q9UJX3,Down
same,LogFC APC7_HUMAN,protein Q9UJX3,-0.9681
same,LogFC NOCT_HUMAN,protein Q9UK39 GN=NOCT,0.6965
same,LogFC CCNL1_HUMAN,protein Q9UK58 GN=CCNL1,-1.514
same,LogFC BORG2_HUMAN,protein Q9UKI2 GN=CDC42EP3,1.338
same,LogFC DEN2A_HUMAN,protein Q9ULE3 GN=DENND2A,-2.086
same,Direction HEG1_HUMAN,protein Q9ULI3,Down
same,LogFC HEG1_HUMAN,protein Q9ULI3,-2.228
same,Direction PKHG1_HUMAN,protein Q9ULL1,Down
same,LogFC PKHG1_HUMAN,protein Q9ULL1,-2.254
same,Direction HECD1_HUMAN,protein Q9ULT8,Down
same,LogFC HECD1_HUMAN,protein Q9ULT8,-1.1597
same,Direction TPX2_HUMAN,protein Q9ULW0,Down
same,LogFC TPX2_HUMAN,protein Q9ULW0,-2.6733
same,LogFC SYNRG_HUMAN,protein Q9UMZ2 GN=SYNRG,0.8469
same,Direction MAGD2_HUMAN,protein Q9UNF1,Down
same,LogFC MAGD2_HUMAN,protein Q9UNF1,-1.225
same,Direction DIM1_HUMAN,protein Q9UNQ2,Down
same,LogFC DIM1_HUMAN,protein Q9UNQ2,-1.324
same,Direction CP131_HUMAN,protein Q9UPN4,Down
same,LogFC CP131_HUMAN,protein Q9UPN4,-0.9726
same,Direction TRI33_HUMAN,protein Q9UPN9,Down
same,LogFC TRI33_HUMAN,protein Q9UPN9,-0.5693
same,LogFC BAIP2_HUMAN,protein Q9UQB8 GN=BAIAP2,0.1397
same,LogFC AKAP2_HUMAN,protein Q9Y2D5 GN=AKAP2,0.8401
same,Direction WBP11_HUMAN,protein Q9Y2W2,Down
same,LogFC WBP11_HUMAN,protein Q9Y2W2,-1.003
same,LogFC RM11_HUMAN,protein Q9Y3B7 GN=MRPL11,-0.5878
same,Direction UFC1_HUMAN,protein Q9Y3C8,Down
same,LogFC UFC1_HUMAN,protein Q9Y3C8,-1.4452
same,Direction FBX7_HUMAN,protein Q9Y3I1,Down
same,LogFC FBX7_HUMAN,protein Q9Y3I1,-0.6256
same,LogFC SAMH1_HUMAN,protein Q9Y3Z3 GN=SAMHD1,0.753
same,LogFC TRRAP_HUMAN,protein Q9Y4A5 GN=TRRAP,-1.346
same,Direction ARIP4_HUMAN,protein Q9Y4B4,Down
same,LogFC ARIP4_HUMAN,protein Q9Y4B4,-1.479
same,LogFC IRS2_HUMAN,protein Q9Y4H2 GN=IRS2,2.2713
same,Direction TBL2_HUMAN,protein Q9Y4P3,Down
same,LogFC TBL2_HUMAN,protein Q9Y4P3,-0.6001
same,LogFC NDK7_HUMAN,protein Q9Y5B8 GN=NME7,2.17
same,Direction PCDGH_HUMAN,protein Q9Y5G0,Down
same,LogFC PCDGH_HUMAN,protein Q9Y5G0,-2.292
same,LogFC CD2AP_HUMAN,protein Q9Y5K6 GN=CD2AP,0.4294
same,LogFC BZW2_HUMAN,protein Q9Y6E2 GN=BZW2,0.8735
same,LogFC OAS3_HUMAN,protein Q9Y6K5 GN=OAS3,-0.7466
same,Direction WASF2_HUMAN,protein Q9Y6W5,Down
same,LogFC WASF2_HUMAN,protein Q9Y6W5,-1.033
same,Direction NS1BP_HUMAN,protein Q9Y6Y0,Down
same,LogFC NS1BP_HUMAN,protein Q9Y6Y0,-2.1021
same,LogFC S23IP_HUMAN,protein Q9Y6Y8 GN=SEC23IP,0.5141
same,Direction GLCNE_HUMAN,protein Q9Y223,Down
same,LogFC GLCNE_HUMAN,protein Q9Y223,-0.915
same,LogFC HPSE_HUMAN,protein Q9Y251 GN=HPSE,0.7253
same,Direction EIF3L_HUMAN,protein Q9Y262,Down
same,LogFC EIF3L_HUMAN,protein Q9Y262,-0.4083
same,Direction AAR2_HUMAN,protein Q9Y312,Down
same,LogFC AAR2_HUMAN,protein Q9Y312,-1.2504
same,LogFC SKAP_HUMAN,protein Q9Y448 GN=KNSTRN,-1.456
same,Direction TLN1_HUMAN,protein Q9Y490,Down
same,LogFC TLN1_HUMAN,protein Q9Y490,-0.5101
same,LogFC PPME1_HUMAN,protein Q9Y570 GN=PPME1,1.066
same,LogFC FHOD1_HUMAN,protein Q9Y613 GN=FHOD1,1.204
same,LogFC JAM1_HUMAN,protein Q9Y624 GN=F11R,1.904
same,Direction GPC6_HUMAN,protein Q9Y625,Down
same,LogFC GPC6_HUMAN,protein Q9Y625,-2.082
same,Direction S12A7_HUMAN,protein Q9Y666,Down
same,LogFC S12A7_HUMAN,protein Q9Y666,-2.1239
same,LogFC EM55_HUMAN,protein Q00013 GN=MPP1,0.8133
same,Direction NAA25_HUMAN,protein Q14CX7,Down
same,LogFC NAA25_HUMAN,protein Q14CX7,-1.1158
same,Direction PDS5A_HUMAN,protein Q29RF7,Down
same,LogFC PDS5A_HUMAN,protein Q29RF7,-1.029
same,LogFC H1BP3_HUMAN,protein Q53T59 GN=HS1BP3,2.722
same,LogFC GL8D1_HUMAN,protein Q68CQ7 GN=GLT8D1,-1.2539

# — publication PMC11971462, “Generation and validation of a novel multitarget small molecule in glioblastoma” (Cell Death & Disease, 2025)
